Key:
[1] = target: T1, Eukaryotic elongation factor 2 kinase (Homo sapiens) (UniProt O00418); test: Inhibition of EEF2K (unknown origin) at 50 nM by Z'LYTE screening method relative to control
T1 sequence (whole entry): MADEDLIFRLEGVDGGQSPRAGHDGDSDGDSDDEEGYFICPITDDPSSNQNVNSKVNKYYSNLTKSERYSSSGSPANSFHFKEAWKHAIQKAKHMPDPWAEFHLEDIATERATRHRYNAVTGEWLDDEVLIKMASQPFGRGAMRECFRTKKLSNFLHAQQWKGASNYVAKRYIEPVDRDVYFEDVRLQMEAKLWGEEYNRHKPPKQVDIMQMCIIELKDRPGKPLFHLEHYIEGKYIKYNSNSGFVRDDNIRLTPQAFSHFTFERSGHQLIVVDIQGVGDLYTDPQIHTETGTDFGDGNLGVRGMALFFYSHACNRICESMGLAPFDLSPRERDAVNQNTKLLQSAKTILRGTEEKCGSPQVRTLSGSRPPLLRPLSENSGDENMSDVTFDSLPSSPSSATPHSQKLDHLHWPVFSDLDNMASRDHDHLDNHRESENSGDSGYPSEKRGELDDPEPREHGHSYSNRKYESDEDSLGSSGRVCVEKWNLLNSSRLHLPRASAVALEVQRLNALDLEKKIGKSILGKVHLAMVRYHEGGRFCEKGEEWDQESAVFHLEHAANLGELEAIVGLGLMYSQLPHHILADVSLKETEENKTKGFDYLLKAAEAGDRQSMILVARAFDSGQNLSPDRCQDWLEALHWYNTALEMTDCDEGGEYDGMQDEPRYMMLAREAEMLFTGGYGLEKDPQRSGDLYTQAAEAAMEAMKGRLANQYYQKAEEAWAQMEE

[2] = target: Serine/threonine-protein kinase mTOR (Homo sapiens) (UniProt P42345); test: Inhibition of FRAP1 (unknown origin) at 50 nM by Z'LYTE screening method relative to control
[3] = target: Mitogen-activated protein kinase 1 (Homo sapiens) (UniProt P28482); test: Inhibition of MAPK1 (unknown origin) at 50 nM by Z'LYTE screening method relative to control
[4] = target: Mitogen-activated protein kinase 8 (Homo sapiens) (UniProt P45983); test: Inhibition of MAPK8 (unknown origin) at 50 nM by Z'LYTE screening method relative to control
[5] = target: Protein kinase C beta type (Homo sapiens) (UniProt P05771); test: Inhibition of PKCbeta1 (unknown origin) at 50 nM by Z'LYTE screening method relative to control
[6] = target: Protein kinase C delta type (Homo sapiens) (UniProt Q05655); test: Inhibition of PKCdelta (unknown origin) at 50 nM by Z'LYTE screening method relative to control
[7] = target: T2, Protein kinase C epsilon type (Homo sapiens) (UniProt Q02156); test: Inhibition of PKCepsilon (unknown origin) at 50 nM by Z'LYTE screening method relative to control
T2 sequence (whole entry): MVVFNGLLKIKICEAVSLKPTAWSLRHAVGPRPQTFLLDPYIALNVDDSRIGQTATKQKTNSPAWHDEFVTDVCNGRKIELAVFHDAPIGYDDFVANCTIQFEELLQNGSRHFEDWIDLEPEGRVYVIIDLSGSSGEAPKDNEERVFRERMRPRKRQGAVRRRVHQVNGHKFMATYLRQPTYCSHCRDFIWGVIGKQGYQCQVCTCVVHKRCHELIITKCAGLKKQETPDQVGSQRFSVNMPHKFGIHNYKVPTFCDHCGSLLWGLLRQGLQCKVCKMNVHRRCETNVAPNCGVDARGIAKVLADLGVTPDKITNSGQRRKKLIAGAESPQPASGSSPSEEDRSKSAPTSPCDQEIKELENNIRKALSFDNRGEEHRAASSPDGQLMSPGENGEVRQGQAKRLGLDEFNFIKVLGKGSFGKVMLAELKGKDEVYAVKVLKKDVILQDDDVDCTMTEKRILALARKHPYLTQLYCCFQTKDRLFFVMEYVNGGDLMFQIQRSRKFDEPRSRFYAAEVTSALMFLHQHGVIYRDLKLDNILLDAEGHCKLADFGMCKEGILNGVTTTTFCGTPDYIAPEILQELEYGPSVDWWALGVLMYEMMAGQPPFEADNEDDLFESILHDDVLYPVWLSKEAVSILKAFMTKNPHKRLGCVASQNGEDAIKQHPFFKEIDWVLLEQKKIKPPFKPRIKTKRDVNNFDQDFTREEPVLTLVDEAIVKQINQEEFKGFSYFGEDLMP

[8] = target: T3, Serine/threonine-protein kinase D1 (Homo sapiens) (UniProt Q15139); test: Inhibition of PKCmu (unknown origin) at 50 nM by Z'LYTE screening method relative to control
T3 sequence (whole entry): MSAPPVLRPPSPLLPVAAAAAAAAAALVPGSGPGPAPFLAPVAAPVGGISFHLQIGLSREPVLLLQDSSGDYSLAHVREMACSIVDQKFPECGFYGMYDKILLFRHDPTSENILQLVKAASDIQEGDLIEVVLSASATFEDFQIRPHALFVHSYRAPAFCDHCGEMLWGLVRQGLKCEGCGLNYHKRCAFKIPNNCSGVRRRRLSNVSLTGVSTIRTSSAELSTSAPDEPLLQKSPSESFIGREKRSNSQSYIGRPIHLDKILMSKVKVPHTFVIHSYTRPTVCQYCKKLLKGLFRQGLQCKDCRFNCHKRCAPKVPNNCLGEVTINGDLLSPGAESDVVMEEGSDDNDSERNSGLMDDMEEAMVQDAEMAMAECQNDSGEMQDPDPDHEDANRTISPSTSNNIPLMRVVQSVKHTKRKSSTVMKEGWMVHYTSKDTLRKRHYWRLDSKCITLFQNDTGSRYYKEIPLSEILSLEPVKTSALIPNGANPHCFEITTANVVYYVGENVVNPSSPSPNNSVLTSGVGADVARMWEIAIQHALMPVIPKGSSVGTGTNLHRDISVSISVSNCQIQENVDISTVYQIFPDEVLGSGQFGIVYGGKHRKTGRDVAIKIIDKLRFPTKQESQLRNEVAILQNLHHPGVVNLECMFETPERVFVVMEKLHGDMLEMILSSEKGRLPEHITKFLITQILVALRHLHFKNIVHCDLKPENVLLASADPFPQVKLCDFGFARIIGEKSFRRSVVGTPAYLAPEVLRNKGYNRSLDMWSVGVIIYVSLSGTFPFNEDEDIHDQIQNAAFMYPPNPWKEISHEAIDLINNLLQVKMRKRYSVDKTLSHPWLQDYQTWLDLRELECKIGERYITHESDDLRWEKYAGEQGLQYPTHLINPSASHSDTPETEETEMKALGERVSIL

[9] = target: Protein kinase C gamma type (Homo sapiens) (UniProt P05129); test: Inhibition of PKC gamma (unknown origin) at 50 nM by Z'LYTE screening method relative to control
[10] = target: Proto-oncogene tyrosine-protein kinase receptor Ret (Homo sapiens) (UniProt P07949); test: Inhibition of RET (unknown origin) at 50 nM by Z'LYTE screening method relative to control
Chain of Proto-oncogene tyrosine-protein kinase receptor Ret (Homo sapiens) (P07949 whole entry): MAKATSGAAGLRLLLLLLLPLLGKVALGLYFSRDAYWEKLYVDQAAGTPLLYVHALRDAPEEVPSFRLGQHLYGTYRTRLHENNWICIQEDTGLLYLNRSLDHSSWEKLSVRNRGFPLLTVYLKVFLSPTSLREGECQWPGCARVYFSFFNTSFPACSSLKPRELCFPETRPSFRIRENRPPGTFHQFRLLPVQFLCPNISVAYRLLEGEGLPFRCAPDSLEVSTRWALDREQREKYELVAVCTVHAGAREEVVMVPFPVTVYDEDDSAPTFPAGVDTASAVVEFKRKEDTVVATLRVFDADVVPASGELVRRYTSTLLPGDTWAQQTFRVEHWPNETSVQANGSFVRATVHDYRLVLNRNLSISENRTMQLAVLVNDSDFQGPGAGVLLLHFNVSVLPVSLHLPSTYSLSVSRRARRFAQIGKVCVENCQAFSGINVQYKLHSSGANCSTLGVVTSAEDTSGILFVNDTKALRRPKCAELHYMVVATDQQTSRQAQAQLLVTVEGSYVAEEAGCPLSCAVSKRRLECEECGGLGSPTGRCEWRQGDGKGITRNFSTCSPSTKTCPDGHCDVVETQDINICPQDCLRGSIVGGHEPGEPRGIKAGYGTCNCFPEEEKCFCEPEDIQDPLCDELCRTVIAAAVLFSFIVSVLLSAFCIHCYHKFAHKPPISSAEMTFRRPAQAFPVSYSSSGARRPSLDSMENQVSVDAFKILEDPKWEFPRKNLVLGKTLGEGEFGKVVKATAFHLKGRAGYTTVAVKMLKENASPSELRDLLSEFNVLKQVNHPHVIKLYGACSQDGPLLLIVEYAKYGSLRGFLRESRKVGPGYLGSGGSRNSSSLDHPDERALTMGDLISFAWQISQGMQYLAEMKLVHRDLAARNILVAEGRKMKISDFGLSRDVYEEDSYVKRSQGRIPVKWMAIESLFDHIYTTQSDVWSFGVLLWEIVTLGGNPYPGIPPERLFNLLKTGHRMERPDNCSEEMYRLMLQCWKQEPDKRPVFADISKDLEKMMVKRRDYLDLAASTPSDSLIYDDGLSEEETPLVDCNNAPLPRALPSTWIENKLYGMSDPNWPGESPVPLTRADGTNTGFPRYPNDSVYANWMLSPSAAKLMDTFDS

Chain of Protein kinase C delta type (Homo sapiens) (Q05655 whole entry, looked up): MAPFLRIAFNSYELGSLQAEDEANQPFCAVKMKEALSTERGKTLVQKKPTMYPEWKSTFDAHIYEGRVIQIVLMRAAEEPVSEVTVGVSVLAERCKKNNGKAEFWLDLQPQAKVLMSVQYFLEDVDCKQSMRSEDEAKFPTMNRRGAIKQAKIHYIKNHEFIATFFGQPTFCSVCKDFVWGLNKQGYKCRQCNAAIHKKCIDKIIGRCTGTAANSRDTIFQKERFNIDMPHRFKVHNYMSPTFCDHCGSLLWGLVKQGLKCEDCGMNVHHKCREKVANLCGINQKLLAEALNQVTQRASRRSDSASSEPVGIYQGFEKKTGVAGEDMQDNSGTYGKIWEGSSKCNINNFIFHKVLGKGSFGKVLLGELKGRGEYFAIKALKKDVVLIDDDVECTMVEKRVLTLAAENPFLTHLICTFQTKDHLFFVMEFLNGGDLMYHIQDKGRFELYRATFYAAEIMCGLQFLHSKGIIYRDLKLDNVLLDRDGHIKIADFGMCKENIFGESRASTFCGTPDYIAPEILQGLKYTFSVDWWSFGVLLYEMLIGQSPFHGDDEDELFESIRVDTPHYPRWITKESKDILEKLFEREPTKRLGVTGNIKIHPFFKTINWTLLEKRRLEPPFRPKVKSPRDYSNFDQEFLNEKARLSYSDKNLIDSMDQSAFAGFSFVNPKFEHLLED
Chain of Mitogen-activated protein kinase 8 (Homo sapiens) (P45983 whole entry): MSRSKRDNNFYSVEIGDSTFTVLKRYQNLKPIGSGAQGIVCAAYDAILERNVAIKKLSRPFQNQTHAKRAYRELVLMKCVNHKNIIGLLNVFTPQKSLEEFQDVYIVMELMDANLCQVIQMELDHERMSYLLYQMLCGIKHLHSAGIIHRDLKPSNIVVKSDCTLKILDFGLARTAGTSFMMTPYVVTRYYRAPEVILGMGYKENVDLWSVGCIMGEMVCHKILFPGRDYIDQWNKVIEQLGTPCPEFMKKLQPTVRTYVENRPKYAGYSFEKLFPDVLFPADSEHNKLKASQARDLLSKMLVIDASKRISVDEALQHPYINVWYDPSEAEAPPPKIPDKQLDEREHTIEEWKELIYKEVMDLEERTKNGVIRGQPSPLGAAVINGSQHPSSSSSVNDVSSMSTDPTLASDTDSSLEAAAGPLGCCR
Chain of Protein kinase C beta type (Homo sapiens) (P05771 2-671 limits assumed): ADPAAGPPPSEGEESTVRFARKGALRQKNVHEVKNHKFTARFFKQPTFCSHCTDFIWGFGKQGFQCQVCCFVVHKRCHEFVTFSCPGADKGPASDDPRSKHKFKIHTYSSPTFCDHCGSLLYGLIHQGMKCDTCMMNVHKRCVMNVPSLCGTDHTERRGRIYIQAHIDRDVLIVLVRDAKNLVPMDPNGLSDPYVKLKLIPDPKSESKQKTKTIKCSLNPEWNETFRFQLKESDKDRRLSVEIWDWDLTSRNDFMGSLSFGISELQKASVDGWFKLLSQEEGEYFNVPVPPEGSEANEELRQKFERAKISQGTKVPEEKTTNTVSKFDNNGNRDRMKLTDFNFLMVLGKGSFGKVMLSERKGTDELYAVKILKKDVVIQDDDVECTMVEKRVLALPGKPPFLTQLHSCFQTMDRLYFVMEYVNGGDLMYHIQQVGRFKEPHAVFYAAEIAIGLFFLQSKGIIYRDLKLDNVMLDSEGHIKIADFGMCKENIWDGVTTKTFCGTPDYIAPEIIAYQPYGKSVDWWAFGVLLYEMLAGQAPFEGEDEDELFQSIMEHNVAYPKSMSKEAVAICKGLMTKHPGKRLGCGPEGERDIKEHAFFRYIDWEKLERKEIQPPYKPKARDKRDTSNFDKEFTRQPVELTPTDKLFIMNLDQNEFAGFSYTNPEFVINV
Chain of Mitogen-activated protein kinase 1 (Homo sapiens) (P28482 whole entry): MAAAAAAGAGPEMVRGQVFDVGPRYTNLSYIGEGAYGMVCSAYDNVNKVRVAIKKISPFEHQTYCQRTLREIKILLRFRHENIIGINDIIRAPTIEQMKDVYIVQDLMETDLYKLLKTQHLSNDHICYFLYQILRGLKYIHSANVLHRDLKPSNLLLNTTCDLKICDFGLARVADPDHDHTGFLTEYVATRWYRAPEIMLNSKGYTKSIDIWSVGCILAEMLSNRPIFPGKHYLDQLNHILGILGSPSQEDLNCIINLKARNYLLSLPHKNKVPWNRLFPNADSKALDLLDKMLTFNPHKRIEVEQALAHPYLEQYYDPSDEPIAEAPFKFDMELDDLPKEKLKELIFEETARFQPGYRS

SMILES | inhibition [1] [%] | inhibition [2] [%] | inhibition [3] [%] | inhibition [4] [%] | inhibition [5] [%] | inhibition [6] [%] | inhibition [7] [%] | inhibition [8] [%] | inhibition [9] [%] | inhibition [10] [%]
O=c1c2ccccc2[se]n1-c1nc(N[C@H]2CC[Se]C2)c2nc[nH]c2n1 | 2 | 0 | 9 | 0 | 95 | 0 | 5 | 7 | 47 | 7
CCCNc1nc(-n2[se]c3ccccc3c2=O)nc2[nH]cnc12 | 0 | 0 | 1 | 0 | 2 | 0 | 6 | 0 | 1 | 0
O=c1c2ccccc2[se]n1-c1nc(N[C@H]2CCOC2)c2nc[nH]c2n1 | 2 | 1 | 2 | 0 | 84 | 0 | 0 | 0 | 25 | 7
CCN(CC)CCCC(C)Nc1nc(N2Cc3ccccc3C2=O)nc2[nH]cnc12 (stereo not given) | 1 | 0 | 2 | 0 | 5 | 0 | 4 | 0 | 1 | 2
CCN(CC)CCCC(C)Nc1nc(-n2[se]c3ccccc3c2=O)nc2[nH]cnc12 (stereo not given) | 0 | 2 | 0 | 0 | 8 | 6 | 8 | 4 | 6 | 1
O=C1c2ccccc2CN1c1nc(N[C@H]2CC[Se]C2)c2nc[nH]c2n1 | 2 | 2 | 0 | 0 | 7 | 0 | 2 | 1 | 3 | 2

The remaining lines, values ahead:

inhibition [1] [%] | inhibition [2] [%] | inhibition [3] [%] | inhibition [4] [%] | inhibition [5] [%] | inhibition [6] [%] | inhibition [7] [%] | inhibition [8] [%] | inhibition [9] [%] | inhibition [10] [%] | SMILES
1 | 0 | 2 | 0 | 5 | 0 | 4 | 6 | 0 | 10 | O=C1c2ccccc2CN1c1nc(NC2CCCCC2)c2nc[nH]c2n1
1 | 0 | 0 | 0 | 59 | 0 | 6 | 5 | 45 | 13 | O=c1c2ccccc2[se]n1-c1nc(NC2CCCCC2)c2nc[nH]c2n1
2 | 0 | 0 | 0 | 0 | 0 | 2 | 2 | 0 | 6 | O=c1c2ccccc2[se]n1-c1nc(N[C@@H]2C[C@H]3CC[C@@H]2C3)c2nc[nH]c2n1
2 | 2 | 0 | 0 | 0 | 0 | 0 | 1 | 2 | 2 | O=C1c2ccccc2CN1c1nc(NC2CCCC2)c2nc[nH]c2n1
2 | 1 | 1 | 0 | 5 | 0 | 2 | 1 | 1 | 2 | C[C@@H]1[C@H]2C[C@@H](C[C@H]1Nc1nc(-n3[se]c4ccccc4c3=O)nc3[nH]cnc13)C2(C)C
1 | 0 | 1 | 0 | 6 | 0 | 0 | 3 | 0 | 4 | O=c1c2ccccc2[se]n1-c1nc(Nc2ccccc2)c2nc[nH]c2n1
